Source: patent US20130338152A1, “FLUOROPHENYL BICYCLIC HETEROARYL COMPOUNDS” (IRM LLC, priority 2011, published 2013)
Read-outs that look alike come from different tables or passages of the source. Each block holds one compound with its values, some of them ahead of it.

Legend:
[1] = molecular target: T1, IGF1R (Homo sapiens, UniProt P08069); experiment: Enzymatic kinase assay (filter-binding/flashplate); format: biochemical
Experimental: (§1) Two methods were used to analyze phosphorylated peptides and proteins produced by the listed tyrosine and serine/threonine-specific protein kinases: either using a filter-binding assay (FB), or using a flashplate assay (FP). The activities of protein kinases were assayed in the presence or absence of inhibitors, by measuring the incorporation of ^33P from [γ^33P]ATP into appropriate substrates.
(§2) 96-well polypropylene microplates were used to assay the activity in the FB mode. To determine the inhibitory activity of compounds 10 μL of compound dilutions were pipetted into 96-well plates followed by the addition of 10 μL of assay mix and 10 μL of individual enzymes. With the addition of the enzymes the reactions were initiated and continued at RT. […] The final concentration of DMSO in the enzyme assays was 1%.
(§3) Flashplates are available as 96-well standard (STFPs) or as streptavidin-(SAFPs) or nickel coated FPs (NiFPs) from Perkin Elmer. STFPs are 96-well polystyrene microplates in which the interior of each well is permanently coated with a thin layer of polystyrene-based scintillant. Streptavidin flashplates (SAFP) are 96 or 384-well STFPs coated with streptavidin. SAFPs are suitable for a wide variety of assay applications which utilize biotinylated capture molecules. NiFP or nickel chelate flashplates are 96- or 384-well STFPs coated with nickel chelate. NiFPs are designed for in-plate, radiometric assays which utilize 4- or 6-histidine tagged proteins and peptides.
(§4) All kinase assays were performed in STFPs for 60 mins at RT and stopped with 50 μL of 0.5% H3PO4 except PKA which were carried out in polypropylene 96- and 384-well plates, respectively. […] All wells were then washed three times with 200 μL of 0.5% H3PO4 and the plates were dried at room temperature. The plates were sealed and counted in a microplate scintillation counter (TopCount NXT, TopCount NXT HTS). The final concentration of DMSO in the enzyme assays was 1%.

[2] = molecular target: InsR (Homo sapiens, UniProt P06213); experiment: Enzymatic kinase assay (filter-binding/flashplate); format: biochemical
Experimental: as §1, §2, §3, §4

[3] = molecular target: hERG channels (Homo sapiens, UniProt Q12809); experiment: biochemical
[4] = molecular target: CDK2A (Homo sapiens, UniProt P24941); experiment: Enzymatic kinase assay; format: biochemical
Experimental: as §1, §2, §3, §4

[5] = molecular target: P38a (Homo sapiens, UniProt Q16539); experiment: Enzymatic kinase assay; format: biochemical
Experimental: as §1, §2, §3, §4

[6] = molecular target: HER2 (Homo sapiens, UniProt P04626); experiment: Enzymatic kinase assay; format: biochemical
Experimental: as §1, §2, §3, §4

[7] = molecular target: cMET (Homo sapiens, UniProt P08581); experiment: Enzymatic kinase assay; format: biochemical
Experimental: as §1, §2, §3, §4

[8] = molecular target: MK2 (Homo sapiens, UniProt P49137); experiment: Enzymatic kinase assay; format: biochemical
Experimental: as §1, §2, §3, §4

[9] = molecular target: LCK (Homo sapiens, UniProt P06239); experiment: Enzymatic kinase assay; format: biochemical
Experimental: as §1, §2, §3, §4

[10] = molecular target: KDR (Homo sapiens, UniProt P35968); experiment: Enzymatic kinase assay; format: biochemical
Experimental: as §1, §2, §3, §4

[11] = molecular target: T2, Aurora A (Homo sapiens, UniProt O14965); experiment: Enzymatic kinase assay; format: biochemical
T2 sequence (O14965 1-403): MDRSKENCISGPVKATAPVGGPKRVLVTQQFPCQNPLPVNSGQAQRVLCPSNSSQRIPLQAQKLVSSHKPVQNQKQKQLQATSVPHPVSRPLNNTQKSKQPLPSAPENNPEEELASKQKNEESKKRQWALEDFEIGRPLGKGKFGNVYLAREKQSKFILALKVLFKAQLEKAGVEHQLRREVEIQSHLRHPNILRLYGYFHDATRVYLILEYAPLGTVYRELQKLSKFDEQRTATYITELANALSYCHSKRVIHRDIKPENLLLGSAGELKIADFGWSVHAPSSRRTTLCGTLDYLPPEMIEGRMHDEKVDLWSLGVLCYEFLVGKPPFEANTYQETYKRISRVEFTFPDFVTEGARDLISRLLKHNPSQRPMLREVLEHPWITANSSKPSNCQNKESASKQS
Experimental: as §1, §2, §3, §4

[12] = molecular target: cKIT (Homo sapiens, UniProt P10721); experiment: Enzymatic kinase assay; format: biochemical
Experimental: as §1, §2, §3, §4

[13] = molecular target: JAK2 (Homo sapiens, UniProt O60674); experiment: Enzymatic kinase assay; format: biochemical
Experimental: as §1, §2, §3, §4

[14] = molecular target: TYK2 (Homo sapiens, UniProt P29597); experiment: Enzymatic kinase assay; format: biochemical
Experimental: as §1, §2, §3, §4

[15] = molecular target: FGFR-4 (Homo sapiens, UniProt P22455); experiment: Enzymatic kinase assay; format: biochemical
Experimental: as §1, §2, §3, §4

[16] = molecular target: cABLT315 (Homo sapiens, UniProt P00519, T315I); experiment: Enzymatic kinase assay; format: biochemical
Experimental: as §1, §2, §3, §4

[17] = molecular target: RET (Homo sapiens, UniProt P07949); experiment: Enzymatic kinase assay; format: biochemical
Experimental: as §1, §2, §3, §4

[18] = molecular target: COT1 (Homo sapiens, UniProt P41279); experiment: Enzymatic kinase assay; format: biochemical
Experimental: as §1, §2, §3, §4

[19] = molecular target: ERK2 (Homo sapiens, UniProt P28482); experiment: Enzymatic kinase assay; format: biochemical
Experimental: as §1, §2, §3, §4

[20] = molecular target: PDGFRa (Homo sapiens, UniProt P16234); experiment: Enzymatic kinase assay; format: biochemical
Experimental: as §1, §2, §3, §4

[21] = molecular target: GSK3beta (Homo sapiens, UniProt P49841); experiment: Enzymatic kinase assay; format: biochemical
Experimental: as §1, §2, §3, §4

[22] = molecular target: EphA4 (Homo sapiens, UniProt P54764); experiment: Enzymatic kinase assay; format: biochemical
Experimental: as §1, §2, §3, §4

[23] = molecular target: T1, IGF1R; experiment: Cellular IGF-1R assay: inhibition of IGF1R phosphorylation in Hek293 cells, capture ELISA (MSD); format: cell-based; parameters: expressed in transfected cells; host or cells: Hek293 (Hek293-IGF1R); details: IGF-triggered receptor phosphorylation
[24] = molecular target: EphB4 (Homo sapiens, UniProt P54760); experiment: Kinase assay of known compound and phenol metabolite X; format: biochemical; details: metabolite comparison table
[25] = molecular target: c-src (Homo sapiens, UniProt P12931); experiment: as above; format: biochemical; details: metabolite comparison table
[26] = molecular target: C-Abl (Homo sapiens, UniProt P00519); experiment: as above; format: biochemical; details: metabolite comparison table

Sequence of InsR (P06213 28-1382, species assumed): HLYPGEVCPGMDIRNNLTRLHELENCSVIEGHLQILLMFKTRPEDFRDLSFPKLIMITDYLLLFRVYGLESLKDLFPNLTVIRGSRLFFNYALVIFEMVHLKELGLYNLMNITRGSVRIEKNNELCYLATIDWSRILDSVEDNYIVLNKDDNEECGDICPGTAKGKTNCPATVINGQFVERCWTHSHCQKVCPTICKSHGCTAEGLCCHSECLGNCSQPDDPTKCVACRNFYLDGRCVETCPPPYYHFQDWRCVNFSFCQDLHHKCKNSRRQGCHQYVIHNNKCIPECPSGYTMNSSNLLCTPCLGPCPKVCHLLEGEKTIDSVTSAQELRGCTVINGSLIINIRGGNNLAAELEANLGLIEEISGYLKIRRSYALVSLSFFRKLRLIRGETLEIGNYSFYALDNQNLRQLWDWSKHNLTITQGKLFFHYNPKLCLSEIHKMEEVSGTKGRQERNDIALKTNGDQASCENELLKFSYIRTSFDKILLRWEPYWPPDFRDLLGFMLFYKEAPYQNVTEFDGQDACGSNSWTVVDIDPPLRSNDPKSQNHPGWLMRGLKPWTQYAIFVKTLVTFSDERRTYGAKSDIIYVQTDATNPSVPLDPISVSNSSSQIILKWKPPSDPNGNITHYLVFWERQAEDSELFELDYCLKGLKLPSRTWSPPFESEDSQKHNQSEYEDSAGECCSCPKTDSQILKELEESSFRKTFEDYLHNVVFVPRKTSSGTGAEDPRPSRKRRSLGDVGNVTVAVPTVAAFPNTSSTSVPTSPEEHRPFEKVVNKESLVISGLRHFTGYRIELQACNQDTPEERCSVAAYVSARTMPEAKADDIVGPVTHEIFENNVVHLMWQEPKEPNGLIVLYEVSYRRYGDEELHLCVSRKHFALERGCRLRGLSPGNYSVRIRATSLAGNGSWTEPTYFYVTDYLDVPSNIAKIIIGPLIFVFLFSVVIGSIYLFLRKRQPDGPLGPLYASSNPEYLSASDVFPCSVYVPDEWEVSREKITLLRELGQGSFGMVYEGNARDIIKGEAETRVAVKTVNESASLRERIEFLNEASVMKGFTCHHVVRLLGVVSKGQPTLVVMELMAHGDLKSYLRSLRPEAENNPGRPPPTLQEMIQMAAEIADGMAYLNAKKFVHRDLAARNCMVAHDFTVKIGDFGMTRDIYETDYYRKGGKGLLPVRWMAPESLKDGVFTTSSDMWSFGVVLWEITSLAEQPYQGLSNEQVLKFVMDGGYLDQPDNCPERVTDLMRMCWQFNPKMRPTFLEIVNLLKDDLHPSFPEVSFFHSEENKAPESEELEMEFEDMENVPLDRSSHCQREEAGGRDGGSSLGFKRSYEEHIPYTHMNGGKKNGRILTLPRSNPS
Sequence of RET (P07949 29-1114, species assumed): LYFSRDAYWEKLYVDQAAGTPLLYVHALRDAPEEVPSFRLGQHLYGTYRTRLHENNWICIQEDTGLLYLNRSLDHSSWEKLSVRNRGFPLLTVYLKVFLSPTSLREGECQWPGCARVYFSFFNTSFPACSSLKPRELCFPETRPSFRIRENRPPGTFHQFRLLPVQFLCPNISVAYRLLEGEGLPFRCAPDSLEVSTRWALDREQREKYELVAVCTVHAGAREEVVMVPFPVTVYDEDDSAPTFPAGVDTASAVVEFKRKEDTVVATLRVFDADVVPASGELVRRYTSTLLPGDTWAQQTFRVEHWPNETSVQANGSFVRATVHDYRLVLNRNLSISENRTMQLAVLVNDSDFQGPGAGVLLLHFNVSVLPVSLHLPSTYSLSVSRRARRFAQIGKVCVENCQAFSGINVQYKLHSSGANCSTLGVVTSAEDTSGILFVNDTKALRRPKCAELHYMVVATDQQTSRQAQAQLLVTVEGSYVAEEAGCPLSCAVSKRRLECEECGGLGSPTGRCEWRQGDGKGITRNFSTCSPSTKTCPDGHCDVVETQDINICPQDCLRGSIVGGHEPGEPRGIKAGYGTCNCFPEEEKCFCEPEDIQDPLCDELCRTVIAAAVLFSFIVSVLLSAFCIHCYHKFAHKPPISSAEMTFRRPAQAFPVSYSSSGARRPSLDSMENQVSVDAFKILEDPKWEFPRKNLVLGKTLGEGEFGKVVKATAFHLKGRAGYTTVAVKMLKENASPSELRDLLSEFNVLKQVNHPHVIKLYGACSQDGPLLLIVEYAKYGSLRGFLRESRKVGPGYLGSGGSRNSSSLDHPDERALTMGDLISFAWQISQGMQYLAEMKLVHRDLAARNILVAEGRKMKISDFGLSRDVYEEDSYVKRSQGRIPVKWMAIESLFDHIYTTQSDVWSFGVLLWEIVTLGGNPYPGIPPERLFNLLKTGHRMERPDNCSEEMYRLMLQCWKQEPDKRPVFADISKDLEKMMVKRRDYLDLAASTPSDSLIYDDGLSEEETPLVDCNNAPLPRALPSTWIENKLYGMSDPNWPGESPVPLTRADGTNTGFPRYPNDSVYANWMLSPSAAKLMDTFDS
T1 sequence (P08069 31-1367): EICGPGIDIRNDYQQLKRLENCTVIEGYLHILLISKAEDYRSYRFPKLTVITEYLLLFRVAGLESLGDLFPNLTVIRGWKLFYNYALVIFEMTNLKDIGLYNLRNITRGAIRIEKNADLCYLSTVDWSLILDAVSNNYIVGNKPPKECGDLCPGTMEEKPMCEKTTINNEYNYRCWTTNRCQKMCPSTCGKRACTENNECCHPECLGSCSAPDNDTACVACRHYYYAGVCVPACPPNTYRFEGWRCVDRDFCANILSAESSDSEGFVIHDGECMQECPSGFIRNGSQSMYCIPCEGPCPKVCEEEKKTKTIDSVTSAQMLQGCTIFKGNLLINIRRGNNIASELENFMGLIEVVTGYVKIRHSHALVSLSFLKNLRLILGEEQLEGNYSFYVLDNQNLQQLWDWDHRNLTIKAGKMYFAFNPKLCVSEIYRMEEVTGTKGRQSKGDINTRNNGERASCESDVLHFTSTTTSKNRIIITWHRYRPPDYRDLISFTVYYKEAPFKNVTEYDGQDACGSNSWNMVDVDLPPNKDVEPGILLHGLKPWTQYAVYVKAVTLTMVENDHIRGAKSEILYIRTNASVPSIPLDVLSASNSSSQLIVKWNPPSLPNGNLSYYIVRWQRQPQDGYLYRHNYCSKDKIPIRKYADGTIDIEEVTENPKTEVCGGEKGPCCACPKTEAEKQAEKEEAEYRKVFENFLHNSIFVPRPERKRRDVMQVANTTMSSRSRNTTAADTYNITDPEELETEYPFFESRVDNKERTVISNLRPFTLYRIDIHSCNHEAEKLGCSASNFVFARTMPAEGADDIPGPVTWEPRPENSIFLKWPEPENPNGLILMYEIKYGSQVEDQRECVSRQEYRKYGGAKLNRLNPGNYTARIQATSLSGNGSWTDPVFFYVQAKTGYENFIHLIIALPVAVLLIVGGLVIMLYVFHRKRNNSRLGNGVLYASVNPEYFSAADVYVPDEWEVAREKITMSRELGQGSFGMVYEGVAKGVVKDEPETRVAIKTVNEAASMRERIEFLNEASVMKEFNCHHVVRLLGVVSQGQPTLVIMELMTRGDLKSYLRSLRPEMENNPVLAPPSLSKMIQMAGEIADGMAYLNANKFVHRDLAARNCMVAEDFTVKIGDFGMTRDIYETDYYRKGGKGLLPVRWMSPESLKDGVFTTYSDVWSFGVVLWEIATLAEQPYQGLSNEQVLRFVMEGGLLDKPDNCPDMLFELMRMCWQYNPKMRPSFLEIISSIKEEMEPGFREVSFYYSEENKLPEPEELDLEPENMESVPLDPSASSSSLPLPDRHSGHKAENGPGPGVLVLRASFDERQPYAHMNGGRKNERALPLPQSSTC
Sequence of cMET (P08581 25-1390): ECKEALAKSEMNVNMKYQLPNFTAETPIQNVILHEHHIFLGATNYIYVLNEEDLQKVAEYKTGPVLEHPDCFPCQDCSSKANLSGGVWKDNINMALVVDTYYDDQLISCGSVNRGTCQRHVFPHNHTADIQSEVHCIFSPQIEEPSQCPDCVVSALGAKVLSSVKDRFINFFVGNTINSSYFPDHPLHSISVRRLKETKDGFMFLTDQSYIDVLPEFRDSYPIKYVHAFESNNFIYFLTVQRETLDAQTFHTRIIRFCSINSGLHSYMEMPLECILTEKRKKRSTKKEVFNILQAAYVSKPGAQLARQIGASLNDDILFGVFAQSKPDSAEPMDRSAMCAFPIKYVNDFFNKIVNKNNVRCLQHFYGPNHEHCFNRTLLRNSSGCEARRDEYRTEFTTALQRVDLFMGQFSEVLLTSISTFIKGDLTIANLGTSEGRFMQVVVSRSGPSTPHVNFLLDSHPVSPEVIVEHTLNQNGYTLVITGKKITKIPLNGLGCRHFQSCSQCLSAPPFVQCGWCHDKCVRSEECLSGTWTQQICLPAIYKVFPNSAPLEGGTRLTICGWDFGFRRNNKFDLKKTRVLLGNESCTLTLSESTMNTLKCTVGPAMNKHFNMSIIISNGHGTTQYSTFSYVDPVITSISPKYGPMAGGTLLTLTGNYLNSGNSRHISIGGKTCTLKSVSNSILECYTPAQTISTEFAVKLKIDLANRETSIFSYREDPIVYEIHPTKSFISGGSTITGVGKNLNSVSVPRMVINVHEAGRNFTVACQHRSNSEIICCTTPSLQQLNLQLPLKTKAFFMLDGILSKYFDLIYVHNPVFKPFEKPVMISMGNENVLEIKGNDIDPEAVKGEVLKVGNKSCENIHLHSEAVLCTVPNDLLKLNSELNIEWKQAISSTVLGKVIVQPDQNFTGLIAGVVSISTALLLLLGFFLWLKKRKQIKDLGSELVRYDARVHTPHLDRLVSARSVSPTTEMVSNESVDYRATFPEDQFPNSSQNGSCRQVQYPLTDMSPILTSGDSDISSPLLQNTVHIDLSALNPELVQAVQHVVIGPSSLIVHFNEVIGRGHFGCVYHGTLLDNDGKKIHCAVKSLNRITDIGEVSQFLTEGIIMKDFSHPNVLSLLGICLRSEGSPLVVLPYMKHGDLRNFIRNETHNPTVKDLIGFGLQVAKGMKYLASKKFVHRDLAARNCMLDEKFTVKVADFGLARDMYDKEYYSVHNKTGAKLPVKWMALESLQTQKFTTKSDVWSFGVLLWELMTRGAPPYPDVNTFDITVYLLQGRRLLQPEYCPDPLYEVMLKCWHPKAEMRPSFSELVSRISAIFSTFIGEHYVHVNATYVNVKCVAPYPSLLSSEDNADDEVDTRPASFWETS

IC50 [1]: 0.015 µM | IC50 ([2]; enzymatic, read-out: InsR IC50 values): 0.043 µM | IC50 [4]: > 10 µM | IC50 [5]: > 10 µM | IC50 [6]: > 10 µM | IC50 [7]: > 10 µM | IC50 [8]: > 10 µM | IC50 [9]: > 10 µM | IC50 [10]: > 10 µM | IC50 [11]: > 10 µM | IC50 [12]: > 10 µM | IC50 [13]: > 10 µM | IC50 [14]: > 10 µM | IC50 [15]: > 10 µM | IC50 [16]: > 10 µM | IC50 ([17]; enzymatic, read-out: RET IC50 values (converted)): > 10 µM | IC50 [18]: > 10 µM | IC50 [19]: > 10 µM | IC50 [20]: > 10 µM | IC50 [21]: > 10 µM | IC50 [22]: > 10 µM | IC50 [23]: 0.004 µM
Compound: [2H]C1([2H])C([2H])([2H])C2(COc3cccc(-c4cn([C@H]5C[C@@H](N6CC[S+]([O-])CC6)C5)c5ncnc(N)c45)c3F)OC1([2H])C([2H])([2H])C2([2H])[2H] [Example 18, d9-5-[2-Fluoro-3-(7-oxa-bicyclo[2.2.1]hept-1-ylmethoxy)-phenyl]-7-[cis-3-(1-oxo-thiomorpholin-4-yl)-cyclobutyl]-7H-pyrrolo[2,3-d]pyrimidin-4-ylamine]
IC50 [3]: > 30 µM

IC50 [24]: > 10 µM | IC50 [25]: > 10 µM | IC50 ([2]; metabolite comparison table, read-out: InsR IC50): 0.23 µM | IC50 ([17]; metabolite comparison table, read-out: RET IC50): 4.4 µM | IC50 [26]: > 10 µM
Compound: Nc1ncnc2c1c(-c1cccc(OCc3ccccc3)c1)cn2[C@H]1C[C@@H](CN2CCC2)C1 [WO02/092599, ex. 102]
